The source of these data is ChEMBL document CHEMBL4304762, “De Novo Design of Boron-Based Peptidomimetics as Potent Inhibitors of Human ClpP in the Presence of Human ClpX” (J Med Chem, 2019).

Test [1] in a line: Inhibition of human ClpP expressed in Escherichia coli SG1146 cells/His6-tagged TEV-fused human ClpX expressed in Escherichia coli B21 Gold DE3 cells complex formation using FITC-casein as substrate incubated for 60 mins and measured at 20 secs time interval for 90 mins by fluorescence assay.
In test [2] the target is ATP-dependent Clp protease proteolytic subunit, mitochondrial (Homo sapiens, UniProt Q16740). Nature of the test: Inhibition of human ClpP expressed in Escherichia coli SG1146 cells using N-acetyl-Trp-Leu-Ala-AMC as substrate incubated for 1 hr and measured at 20 secs time interval for 90 mins by fluorescence assay.
Sequence of ATP-dependent Clp protease proteolytic subunit, mitochondrial (Q16740 whole entry): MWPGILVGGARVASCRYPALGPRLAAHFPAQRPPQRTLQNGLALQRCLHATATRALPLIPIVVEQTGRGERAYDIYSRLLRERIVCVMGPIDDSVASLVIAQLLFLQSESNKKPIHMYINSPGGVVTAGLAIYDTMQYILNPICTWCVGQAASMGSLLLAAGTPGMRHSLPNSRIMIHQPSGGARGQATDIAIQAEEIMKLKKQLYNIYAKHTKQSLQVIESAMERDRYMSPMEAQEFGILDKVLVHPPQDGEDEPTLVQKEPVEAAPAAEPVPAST

`CC(C)C[C@H](NC(=O)[C@H](CC(C)C)NC(=O)c1ccc(F)c([N+](=O)[O-])c1)B(O)O` displayed an IC50 in test [1] of 1000 nM.
As to `COc1ccc(C(=O)NC(CC(C)C)C(=O)NC(Cc2ccccc2)B(O)O)c(Cl)c1` (stereo unspecified), the values for the IC50 entry in test [2] and in test [2] (read-out: IC50) were “Not Active” and 118000 nM, respectively.
Regarding `CC(C)C[C@H](NC(=O)[C@H](CC(C)C)NC(=O)c1ccccc1-c1ccccc1)B(O)O`, in test [1], the IC50 was 900 nM.
The same measure, in the same setting: under `COc1ccc(C(=O)N[C@@H](CC(C)C)C(=O)N[C@@H](CC(C)C)B(O)O)c(Cl)c1` stands 800 nM.
As to `CC(C)CC(NC(=O)C(CC(C)C)NC(=O)C1(c2ccccc2)CC1)B(O)O` (stereo unspecified), the half-maximal inhibitory concentration (IC50) entry in test [2] is reported as “Not Active”.
